Laboratory results: publication PMC3961306, “Comparison of the Cancer Gene Targeting and Biochemical Selectivities of All Targeted Kinase Inhibitors Approved for Clinical Use” (PLoS ONE, 2014)
Read-outs that look alike come from different tables or passages of the source.

Key:
Experiment in all cases: Kinase profiling in a biochemical assay panel (mobility shift assays and ELISA), %-inhibition at 1 μM; selectivity entropy
[1] = molecular target: panel of more than 300 wild-type and mutant kinases (313 kinase panel) (Homo sapiens, UniProt P07332); conditions: kinase FES; compound at 1 μM
[2] = molecular target: panel of more than 300 wild-type and mutant kinases (313 kinase panel) (Homo sapiens, UniProt P10721)
Sequence of panel of more than 300 wild-type and mutant kinases (313 kinase panel) (Homo sapiens, UniProt P10721) (P10721 26-976, change not shown): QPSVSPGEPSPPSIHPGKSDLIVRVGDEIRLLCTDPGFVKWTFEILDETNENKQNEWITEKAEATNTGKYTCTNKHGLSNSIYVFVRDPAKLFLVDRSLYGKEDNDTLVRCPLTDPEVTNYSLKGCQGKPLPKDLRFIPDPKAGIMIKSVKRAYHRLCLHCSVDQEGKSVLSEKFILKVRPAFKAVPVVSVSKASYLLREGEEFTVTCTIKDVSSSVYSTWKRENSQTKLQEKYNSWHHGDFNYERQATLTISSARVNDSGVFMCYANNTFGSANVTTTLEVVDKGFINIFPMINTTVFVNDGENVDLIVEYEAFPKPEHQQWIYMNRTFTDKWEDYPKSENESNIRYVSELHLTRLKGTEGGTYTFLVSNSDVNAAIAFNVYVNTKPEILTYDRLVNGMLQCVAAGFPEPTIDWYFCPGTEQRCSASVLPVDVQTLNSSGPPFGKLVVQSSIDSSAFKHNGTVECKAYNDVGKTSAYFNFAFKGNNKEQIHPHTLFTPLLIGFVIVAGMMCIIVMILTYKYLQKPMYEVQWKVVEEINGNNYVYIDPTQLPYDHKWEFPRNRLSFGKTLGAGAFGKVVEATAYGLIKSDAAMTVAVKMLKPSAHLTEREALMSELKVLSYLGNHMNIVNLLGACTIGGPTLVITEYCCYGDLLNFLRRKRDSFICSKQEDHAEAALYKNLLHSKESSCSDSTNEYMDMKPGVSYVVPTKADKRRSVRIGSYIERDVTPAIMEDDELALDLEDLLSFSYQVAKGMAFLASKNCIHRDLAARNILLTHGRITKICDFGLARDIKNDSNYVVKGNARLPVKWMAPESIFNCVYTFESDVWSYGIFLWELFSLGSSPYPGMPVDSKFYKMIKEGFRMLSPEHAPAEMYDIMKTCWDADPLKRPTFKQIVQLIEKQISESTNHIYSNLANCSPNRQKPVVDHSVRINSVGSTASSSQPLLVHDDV

[3] = molecular target: panel of more than 300 wild-type and mutant kinases (313 kinase panel) (Homo sapiens, UniProt P49674)
[4] = molecular target: panel of more than 300 wild-type and mutant kinases (313 kinase panel) (Homo sapiens, UniProt Q04759)
Sequence of panel of more than 300 wild-type and mutant kinases (313 kinase panel) (Homo sapiens, UniProt Q04759) (Q04759 whole entry, change not shown): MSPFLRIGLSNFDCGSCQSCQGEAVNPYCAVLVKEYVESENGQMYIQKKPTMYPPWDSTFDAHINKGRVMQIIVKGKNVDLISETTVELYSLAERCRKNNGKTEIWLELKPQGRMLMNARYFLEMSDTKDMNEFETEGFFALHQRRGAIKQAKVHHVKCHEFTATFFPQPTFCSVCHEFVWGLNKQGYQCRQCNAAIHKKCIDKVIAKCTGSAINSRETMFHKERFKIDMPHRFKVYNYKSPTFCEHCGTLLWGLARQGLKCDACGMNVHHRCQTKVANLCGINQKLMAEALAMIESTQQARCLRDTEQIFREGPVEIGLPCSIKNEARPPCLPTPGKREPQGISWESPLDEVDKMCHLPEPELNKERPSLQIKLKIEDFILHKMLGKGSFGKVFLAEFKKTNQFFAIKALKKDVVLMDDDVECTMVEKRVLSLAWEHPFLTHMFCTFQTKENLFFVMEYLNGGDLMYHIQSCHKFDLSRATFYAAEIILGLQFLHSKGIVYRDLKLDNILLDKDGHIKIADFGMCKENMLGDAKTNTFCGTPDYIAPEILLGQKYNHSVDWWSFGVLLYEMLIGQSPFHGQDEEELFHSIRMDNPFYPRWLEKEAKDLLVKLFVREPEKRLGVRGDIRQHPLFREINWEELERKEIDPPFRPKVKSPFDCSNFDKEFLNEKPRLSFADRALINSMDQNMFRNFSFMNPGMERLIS

[5] = molecular target: panel of more than 300 wild-type and mutant kinases (313 kinase panel) (Homo sapiens, UniProt Q9H2G2)
[6] = molecular target: T1, panel of more than 300 wild-type and mutant kinases (313 kinase panel) (Homo sapiens, UniProt P15735)
T1 sequence (P15735 1-406): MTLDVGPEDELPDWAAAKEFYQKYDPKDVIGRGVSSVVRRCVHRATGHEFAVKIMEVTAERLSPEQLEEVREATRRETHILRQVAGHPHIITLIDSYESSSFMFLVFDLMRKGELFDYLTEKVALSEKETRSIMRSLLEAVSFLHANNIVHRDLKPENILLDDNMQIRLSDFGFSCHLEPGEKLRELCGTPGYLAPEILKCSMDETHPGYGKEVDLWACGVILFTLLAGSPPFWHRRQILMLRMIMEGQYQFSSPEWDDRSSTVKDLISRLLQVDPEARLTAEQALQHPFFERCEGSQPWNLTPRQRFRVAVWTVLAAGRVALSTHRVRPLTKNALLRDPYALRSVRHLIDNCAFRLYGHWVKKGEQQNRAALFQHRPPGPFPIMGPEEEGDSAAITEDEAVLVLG

[7] = molecular target: panel of more than 300 wild-type and mutant kinases (313 kinase panel) (Homo sapiens, UniProt Q8N4C8)
Sequence of panel of more than 300 wild-type and mutant kinases (313 kinase panel) (Homo sapiens, UniProt Q8N4C8) (Q8N4C8 whole entry, change not shown): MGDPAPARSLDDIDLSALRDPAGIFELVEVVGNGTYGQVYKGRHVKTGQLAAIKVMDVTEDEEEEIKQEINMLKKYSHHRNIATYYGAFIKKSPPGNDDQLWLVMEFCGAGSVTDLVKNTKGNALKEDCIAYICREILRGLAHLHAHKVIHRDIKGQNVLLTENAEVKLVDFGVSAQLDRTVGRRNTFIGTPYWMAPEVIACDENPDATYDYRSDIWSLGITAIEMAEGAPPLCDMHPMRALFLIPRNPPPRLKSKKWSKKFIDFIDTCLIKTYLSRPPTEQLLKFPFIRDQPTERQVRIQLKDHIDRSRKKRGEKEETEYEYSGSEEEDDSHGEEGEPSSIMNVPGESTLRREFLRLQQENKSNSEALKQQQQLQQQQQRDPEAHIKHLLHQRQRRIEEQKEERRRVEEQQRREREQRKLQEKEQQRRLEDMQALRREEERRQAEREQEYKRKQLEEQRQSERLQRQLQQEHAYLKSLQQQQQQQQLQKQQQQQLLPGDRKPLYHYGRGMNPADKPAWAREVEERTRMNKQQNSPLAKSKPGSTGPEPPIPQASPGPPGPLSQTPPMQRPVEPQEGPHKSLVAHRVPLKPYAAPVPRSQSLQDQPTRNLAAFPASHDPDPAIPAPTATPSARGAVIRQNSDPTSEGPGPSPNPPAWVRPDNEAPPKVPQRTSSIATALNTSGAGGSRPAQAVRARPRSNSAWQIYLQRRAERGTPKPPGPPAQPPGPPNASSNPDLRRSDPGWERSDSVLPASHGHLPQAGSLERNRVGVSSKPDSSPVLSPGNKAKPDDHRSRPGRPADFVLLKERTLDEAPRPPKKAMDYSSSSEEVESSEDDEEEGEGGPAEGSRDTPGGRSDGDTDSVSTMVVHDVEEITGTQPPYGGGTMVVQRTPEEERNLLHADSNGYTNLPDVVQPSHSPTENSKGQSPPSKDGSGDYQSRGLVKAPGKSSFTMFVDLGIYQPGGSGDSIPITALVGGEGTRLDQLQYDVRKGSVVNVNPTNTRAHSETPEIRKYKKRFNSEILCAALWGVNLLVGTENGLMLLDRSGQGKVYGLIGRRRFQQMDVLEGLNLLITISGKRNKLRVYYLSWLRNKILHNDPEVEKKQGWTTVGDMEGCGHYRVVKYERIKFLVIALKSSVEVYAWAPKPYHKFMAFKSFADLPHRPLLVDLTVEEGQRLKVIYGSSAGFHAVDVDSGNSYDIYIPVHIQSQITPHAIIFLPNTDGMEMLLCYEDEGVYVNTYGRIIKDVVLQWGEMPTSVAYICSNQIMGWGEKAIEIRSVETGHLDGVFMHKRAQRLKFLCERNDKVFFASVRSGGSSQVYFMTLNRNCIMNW

[8] = molecular target: T2, panel of more than 300 wild-type and mutant kinases (313 kinase panel) (Homo sapiens, UniProt Q96PF2); conditions: kinase TSSK2; 1 μM
T2 sequence (Q96PF2 1-358): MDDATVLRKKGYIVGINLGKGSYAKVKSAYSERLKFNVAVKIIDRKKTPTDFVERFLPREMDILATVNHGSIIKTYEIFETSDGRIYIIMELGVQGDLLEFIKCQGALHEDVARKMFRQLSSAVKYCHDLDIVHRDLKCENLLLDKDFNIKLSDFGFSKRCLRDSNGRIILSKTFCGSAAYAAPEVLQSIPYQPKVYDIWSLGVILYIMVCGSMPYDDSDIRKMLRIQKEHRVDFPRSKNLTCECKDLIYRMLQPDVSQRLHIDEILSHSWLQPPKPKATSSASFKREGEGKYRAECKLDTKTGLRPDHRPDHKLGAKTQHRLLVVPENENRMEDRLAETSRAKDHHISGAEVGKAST

[9] = molecular target: panel of more than 300 wild-type and mutant kinases (313 kinase panel) (Homo sapiens, UniProt O75582); conditions: kinase MSK1; 1 μM
[10] = molecular target: T3, panel of more than 300 wild-type and mutant kinases (313 kinase panel) (Homo sapiens, UniProt O14733); conditions: kinase MAP2K7; compound at 1 μM
T3 sequence (O14733 1-419): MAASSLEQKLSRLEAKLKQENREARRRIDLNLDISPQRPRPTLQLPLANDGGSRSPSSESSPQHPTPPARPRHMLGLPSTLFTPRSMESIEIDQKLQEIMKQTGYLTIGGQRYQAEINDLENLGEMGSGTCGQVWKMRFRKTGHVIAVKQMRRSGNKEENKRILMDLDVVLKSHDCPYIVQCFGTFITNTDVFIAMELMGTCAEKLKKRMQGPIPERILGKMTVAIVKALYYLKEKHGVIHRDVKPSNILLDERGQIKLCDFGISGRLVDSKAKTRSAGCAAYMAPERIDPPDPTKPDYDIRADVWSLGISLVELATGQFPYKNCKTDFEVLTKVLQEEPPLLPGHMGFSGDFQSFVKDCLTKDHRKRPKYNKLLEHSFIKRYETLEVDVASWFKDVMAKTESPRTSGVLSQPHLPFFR

[11] = molecular target: T4, panel of more than 300 wild-type and mutant kinases (313 kinase panel) (Homo sapiens, UniProt P46734); conditions: kinase MAP2K3; compound at 1 μM
T4 sequence (P46734 1-347): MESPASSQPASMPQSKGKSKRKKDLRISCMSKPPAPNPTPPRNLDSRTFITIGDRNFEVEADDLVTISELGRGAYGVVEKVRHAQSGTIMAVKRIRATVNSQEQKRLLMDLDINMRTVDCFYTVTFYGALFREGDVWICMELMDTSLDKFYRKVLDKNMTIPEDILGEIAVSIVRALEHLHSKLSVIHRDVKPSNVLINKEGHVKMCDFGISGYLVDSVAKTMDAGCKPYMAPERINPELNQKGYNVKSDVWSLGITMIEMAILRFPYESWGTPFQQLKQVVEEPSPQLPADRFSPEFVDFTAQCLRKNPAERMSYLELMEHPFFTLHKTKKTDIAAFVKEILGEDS

[12] = molecular target: panel of more than 300 wild-type and mutant kinases (313 kinase panel) (Homo sapiens, UniProt P36894)

Structure (SMILES) | %-inhibition of FES [1] [%] | %-inhibition of KIT ([2]; kinase KIT, compound at 1 μM) [%] | %-inhibition, CK1ε ([3]; kinase CK1ε, 1 μM compound) [%] | %-inhibition of PKCθ ([4]; kinase PKCθ, 1 μM) [%] | %-inhibition of SLK ([5]; kinase SLK, 1 μM) [%] | %-inhibition of PHKG2 ([6]; kinase PHKG2, 1 μM) [%] | %-inhibition of MINK ([7]; kinase MINK, 1 μM) [%] | %-inhibition of TSSK2 [8] [%] | %-inhibition of MSK1 [9] [%] | %-inhibition of MAP2K7 [10] [%] | %-inhibition of MAP2K3 [11] [%] | %-inhibition, BMPR1A ([12]; kinase BMPR1A, 1 μM compound) [%] | %-inhibition of KIT ([2]; 1 µM) [%] | %-inhibition, CK1ε ([3]; 1 µM) [%] | %-inhibition of PKCθ ([4]; 1 µM) [%] | %-inhibition of SLK ([5]; 1 µM) [%] | %-inhibition of PHKG2 ([6]; 1 µM) [%] | %-inhibition of MINK ([7]; 1 µM) [%] | %-inhibition, BMPR1A [12] [%]
CO[C@H]1C[C@@H]2CC[C@@H](C)[C@@](O)(O2)C(=O)C(=O)N2CCCC[C@H]2C(=O)O[C@H]([C@H](C)C[C@@H]2CC[C@@H](OCCO)[C@H](OC)C2)CC(=O)[C@H](C)/C=C(\C)[C@@H](O)[C@@H](OC)C(=O)[C@H](C)C[C@H](C)/C=C/C=C/C=C/1C [everolimus] | -2.38 | -10 | -6.43 | -8 | -2.67 | -8 | -7.49 | -11 | -2 | 11 | 10 | -3.21 |  |  |  |  |  |  | 
O=S(=O)(c1cccc2cnccc12)N1CCCNCC1 [fasudil] | -3.78 | -0.648 | -4.62 | 13 | 4.5 | 4 | -1.41 | -0.28 | 37 | -3.26 | -4 | -10 |  |  |  |  |  |  | 
CS(=O)(=O)CCNCc1ccc(-c2ccc3ncnc(Nc4ccc(OCc5cccc(F)c5)c(Cl)c4)c3c2)o1 [lapatinib] | 5 |  |  |  |  |  |  | -7.54 | 7 | -4 | 13 |  | 9 | 1.64 | 0 | 10 | 0.269 | -0.581 | 7.37
Cc1cn(-c2cc(NC(=O)c3ccc(C)c(Nc4nccc(-c5cccnc5)n4)c3)cc(C(F)(F)F)c2)cn1 [nilotinib] | -19 |  | 0.595 | -3.49 | -41 | -9 | 3 | 2.58 | 2.48 | -24 | 94 | -22 | 96 |  |  |  |  |  | 
CNC(=O)c1cc(Oc2ccc(NC(=O)Nc3ccc(Cl)c(C(F)(F)F)c3)c(F)c2)ccn1 [regorafenib] | -0.247 | 100 | -6 | -7.47 | 29 | -8 | 24 | -11 | 1 | -2.53 | 90 | -4.65 |  |  |  |  |  |  | 
